According to patent US9090627B2 (priority 2012, dated 2015):

What was measured:
[1] = rat
[2] = human
mice = conditions: mouse, in vivo; cited from earlier work

Molecule	Skin penetration behavior (layer reached) [1]	Change in penetration with application time [2]	LD50 in mice (mice)
CCN1C[C@]2(COC)[C@H](O)C[C@H](OC)[C@@]34[C@@H]5C[C@@]6(O)[C@H](OC(=O)c7ccccc7)[C@@H]5[C@@](OC(C)=O)([C@@H]([C@H](OC)[C@H]23)[C@@H]14)[C@@H](O)[C@@H]6OC [aconitine]	Complete skin penetration	increased penetration occurring at 4 and 10 hours of application in comparison to 1 hour	–
Batrachotoxin	–	–	2 µg/kg
